Assay [1] concerns Human THP1 cells. The assay is described as follows: ELISA analysis of IL-10 and TNF expression in media from LPS-stimulated THP1 cells (cytokine release platform). It is filed as cell-based. To be noted: FIG. 11A-F, compounds at 1 mM, 100 μM and 10 μM for 2 hrs, vs DMSO vehicle. Here is the method: FIG. 10: ELISA analysis of IL-10 and TNF expression in media from cells pretreated with DMSO (vehicle) or (A/B) piperonyl acetate and (C/D) piperonyl isobutyrate for 2 hrs and stimulated with LPS for 24 hrs. Human THP1 cells treated with compounds at (1 mM, 100 μM and 10 μM) and LPS […]. All data are presented as the mean±SEM of three or four independent experiments and were subjected to paired Student's t test.
FIG. 11: ELISA analysis of IL-10 and TNF expression in media from cells pretreated with DMSO (vehicle) or (A/B) vanillin, (C/D) ethyl vanillin and (E/F) divanillin for 2 hrs and stimulated with LPS for 24 hrs. Human THP1 cells treated with compounds at (1 mM, 100 μM and 10 μM) and LPS […]. (G) DH82 cells were treated with veratric acid (1 mM, 500 uM, 250 uM, 125 uM, 60 uM, 30 uM) for 2 hrs and stimulated with LPS for 24 hrs. All data are presented as the mean±SEM of three or four independent experiments and were subjected to paired Student's t test.
THP-1 cells were cultured in RPMI supplemented with 10% (v/v) heat inactivated FBS, penicillin G (100 μg/ml) and streptomycin (100 μg/ml) in a 37° C. humidified chamber under a 5% CO2 atmosphere. Cell morphology and confluence, including media acidification colour change were monitored daily. Twice a week, cells were passaged by removal from flask and centrifugation at 400 G. Cells were cultured for a maximum of 25 passages in order to avoid excessive genetic drift. Cells were seeded at 1×10^6/ml.
Cell supernatant or serum samples were collected and stored at −80° C. prior to analysis. 96-well NUNC “Maxisorb” plates were coated with 100 μl capture antibody diluted to a working concentration in PBS. […] The optical density (OD) value of each well was measured at 450 nm with a correction at 590 nm. A ELx800™ microplate reader with Gen5 Data Analysis Software was used to carry out the reading. The sample concentrations were determined by interpolating the sample absorbance from the known concentrations of the standard curve. Standards were assayed in duplicate while samples were analysed in triplicate. […]
In general terms: An ELISA detects its analyte on a solid surface through an enzyme-linked reagent.

Assay [2] has as its system COL2A1. The assay is described as follows: In vitro arthritis model: DH82 supernatant transferred to canine chondrocytes, COL2A1 mRNA by RT-PCR. The class given is cell-based. To be noted: FIG. 14(A); DH82 macrophage cells treated with 500 μM for 2 hrs and LPS (100 μg/ml) 3 hours; media transferred to canine chondrocytes (CNC) 24 hours; compared to LPS alone. Here is the method:
FIG. 13: (1) DH82 cells are plated and stimulated with the compound, followed by LPS. (2) After 24 hours, TNF has been produced by the cells and (3) This liquid supernatant is removed from the cells and reserved. (4) Chondrocytes are plated and (5) the reserved liquid supernatant containing TNF and other inflammatory cytokines from the DH82 cells is added on top of these cells, thus exposing the cartilage cells to an inflammatory environment, simulating an inflammatory joint. (6) After 24 hours gene expression of COL2A1 is measured.
FIG. 14: (A) DH82 cells were stimulated with DMSO (vehicle) or veratraldehyde (500 μM) for 2 hrs and stimulated with LPS (100 μg/ml) for 3 hours. […] COL2A1 mRNA expression was measured by RT-PCR. (B) Quantitative RT-PCR of mRNA expression of COL2A1 in Canine chondrocytes (CNC) pretreated with DMSO (vehicle), Methyl Isoeugenol, NaOH, Vertic Acid, Folic Acid, Piperonyl Alcohol, Veratraldehyde (500 μM) for 24 hrs. […]
Canine chondrocyte (CNC) cells were cultured in complete CNC media in a 37° C. humidified chamber under a 5% CO2 atmosphere. Cell morphology and confluence were monitored daily. […]
Enriched inflammatory cell supernatant from DH82 cells was prepared by first stimulating seeded DH82 cells with compound, followed by stimulation with LPS for 3 hours. […] After 24 hours, mRNA was harvested from CNC as described above and levels of COL2A1 were assessed. […]

Assay [3] deals with DH82 cells. As to the kind of experiment: ELISA of media from LPS-stimulated DH82 cells. The class given is cell-based, canine. Conditions: FIG. 11G, 1 mM, 500 uM, 250 uM, 125 uM, 60 uM, 30 uM for 2 hrs, then LPS for 24 hrs. Here is the method:
FIG. 3: ELISA analysis of TNF expression in media from cells pretreated with DMSO (vehicle) or Veratraldehyde for 2 hrs and stimulated with LPS for 24 hrs. (A) human THP1 cells treated with Veratraldehyde (200 μM, 100 μM and 50 μM) and LPS (1 mg/ml). (B) human peripheral blood mononuclear cell (PBMC) treated with Veratraldehyde (100 μM) and LPS (100 μg/ml). (C) murine bone-marrow-derived macrophages (BMDMs) isolated from C57BL/6 WT mice treated with Veratraldehyde (100 μM) and LPS (100 μg/ml). (D) Quantitative RT-PCR of mRNA expression of Tnf in PBMCs pretreated with DMSO (vehicle) or veratraldehyde (100 μM) for 2 hrs and stimulated with LPS (100 μg/ml) for 3 hrs. (E and G) TNF was measured from canine macrophage-like cells (DH82) treated with veratraldehyde (1 mM, 500 uM, 200 uM, 100 uM, 50 uM, 10 uM) and LPS for 24 hours by ELISA. (F) Quantitative RT-PCR of mRNA expression of Tnf in DH82 cells pretreated with DMSO (vehicle) or veratraldehyde (500 μM) for 2 hrs and stimulated with LPS (100 μg/ml) for 1.5 and 3 hrs. […] COL2A1 mRNA expression was measured by RT-PCR. […]
DH82 cells were cultured in EMEM supplemented with 10% (v/v) heat inactivated FBS, penicillin G (100 μg/ml) and streptomycin (100 μg/ml) in a 37° C. humidified chamber under a 5% CO2 atmosphere. Cell morphology and confluence were monitored daily. […]

Consider `COc1cc(C=O)cc(-c2cc(C=O)cc(OC)c2O)c1O` [divanillin], for which the “anti-inflammatory effect (ELISA analysis of IL-10 and TNF expression in media)” value in assay [1] is “does not show an anti-inflammatory effect”.

`CCOc1cc(C=O)ccc1O` [ethyl vanillin]: the “anti-inflammatory effect (ELISA analysis of IL-10 and TNF expression in media)” value in assay [1] is recorded as “does not show an anti-inflammatory effect”.

On to `COc1cc(C=O)ccc1O` [vanillin], for which the “anti-inflammatory effect (ELISA analysis of IL-10 and TNF expression in media)” value in assay [1] was “does not show an anti-inflammatory effect”.

Turning to `COc1ccc(C=O)cc1OC` [veratraldehyde, 3,4-dimethoxybenzaldehyde], in assay [2], the “levels of COL2A1 (mRNA expression) in chondrocyte cells” value is “significant restoration”.

Turning to `COc1ccc(C(=O)O)cc1OC` [veratric acid], the “anti-inflammatory effect (ELISA)” value in assay [3] was “does not show an anti-inflammatory effect”.
